Results reported in patent publication EP4722207A1, “OXOISOINDOLINYL-SUBSTITUTED TETRAHYDROPYRIMIDINEDIONE DERIVATIVE AND USE THEREOF” (Gluetacs Therapeutics (Shanghai) Co., Ltd., priority 2023, dated 2024).

Columns and labels:
GSPT1 = target: T1, GSPT1 (Homo sapiens, UniProt P15170+Q96SW2); test: Western-blot assay, substrate protein degradation in hPBMCs: GSPT1; assay type: cell-based; details: 24 hours of compound treatment, 50 nM and 500 nM
T1 construct: effects of the compounds of the present disclosure on the expression of target proteins in cells; endogenous in cells; host or cells: human PBMCs (hPBMCs)

IKZF1 = target: T2, IKZF1 (Homo sapiens, UniProt Q13422+Q96SW2); test: Western-blot assay, substrate protein degradation in hPBMCs: IKZF1; assay type: cell-based; details: 24 hours of compound treatment, 50 nM and 500 nM
T2 construct: effects of the compounds of the present disclosure on the expression of target proteins in cells; endogenous in cells; host or cells: human PBMCs (hPBMCs)

MDA-MB-231 = test: Cell viability assay (CellTiter-Meiluncell Luminescent), tumor cell proliferation, MDA-MB-231; details: Homo sapiens, MDA-MB-231, 96 h; for inhibition at 0.01 µM: read-out: Inhibition Rate at 10 nM (%); for inhibition at 0.5 µM: read-out: Inhibition Rate at 500 nM (%)
IKZF3 = target: T3, IKZF3 (Homo sapiens, UniProt Q96SW2+Q9UKT9); test: Western-blot assay, substrate protein degradation in hPBMCs: IKZF3; assay type: cell-based; details: 24 hours of compound treatment, 50 nM and 500 nM
T3 construct: effects of the compounds of the present disclosure on the expression of target proteins in cells; endogenous in cells; host or cells: human PBMCs (hPBMCs)

H2228 = test: Cell viability assay (CellTiter-Meiluncell Luminescent), tumor cell proliferation, H2228; details: Homo sapiens, NCI-H2228, 96 h; for inhibition at 0.01 µM: read-out: Inhibition Rate at 10 nM (%); for inhibition at 0.5 µM: read-out: Inhibition Rate at 500 nM (%)
H292 = test: Cell viability assay (CellTiter-Meiluncell Luminescent), tumor cell proliferation, H292; details: Homo sapiens, NCI-H292, 96 h; for inhibition at 0.01 µM: read-out: Inhibition Rate at 10 nM (%); for inhibition at 0.5 µM: read-out: Inhibition Rate at 500 nM (%)
CK1α = target: T4, CK1α (Homo sapiens, UniProt P48729+Q96SW2); test: Western-blot assay, substrate protein degradation in hPBMCs: CK1α; assay type: cell-based; details: 24 hours of compound treatment, 50 nM and 500 nM
T4 construct: effects of the compounds of the present disclosure on the expression of target proteins in cells; endogenous in cells; host or cells: human PBMCs (hPBMCs)

WEE1 = target: T5, WEE1 (Homo sapiens, UniProt P30291+Q96SW2); test: Western-blot assay, substrate protein degradation in hPBMCs: WEE1; assay type: cell-based; details: 24 hours of compound treatment, 50 nM and 500 nM
T5 construct: effects of the compounds of the present disclosure on the expression of target proteins in cells; endogenous in cells; host or cells: human PBMCs (hPBMCs)

IKZF2 = target: T6, IKZF2 (Homo sapiens, UniProt Q96SW2+Q9UKS7); test: Western-blot assay, substrate protein degradation in hPBMCs: IKZF2; assay type: cell-based; details: 24 hours of compound treatment, 50 nM and 500 nM
T6 construct: effects of the compounds of the present disclosure on the expression of target proteins in cells; endogenous in cells; host or cells: human PBMCs (hPBMCs)
T6 sequence (Q9UKS7 whole entry): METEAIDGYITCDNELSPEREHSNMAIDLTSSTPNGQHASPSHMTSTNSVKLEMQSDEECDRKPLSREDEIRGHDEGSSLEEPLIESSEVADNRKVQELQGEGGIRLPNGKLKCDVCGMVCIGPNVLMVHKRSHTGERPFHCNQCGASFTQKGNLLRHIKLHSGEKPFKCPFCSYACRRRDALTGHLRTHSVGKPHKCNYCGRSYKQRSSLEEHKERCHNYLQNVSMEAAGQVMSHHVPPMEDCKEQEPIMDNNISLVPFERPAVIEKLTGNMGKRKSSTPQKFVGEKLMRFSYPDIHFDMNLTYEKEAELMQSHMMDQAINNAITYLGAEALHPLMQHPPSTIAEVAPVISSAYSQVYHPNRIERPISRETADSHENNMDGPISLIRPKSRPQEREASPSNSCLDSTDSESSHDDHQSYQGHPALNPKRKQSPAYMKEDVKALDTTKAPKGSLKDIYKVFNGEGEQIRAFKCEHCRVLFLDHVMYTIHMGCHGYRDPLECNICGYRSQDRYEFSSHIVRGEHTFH
T6 sequence (Q96SW2 whole entry): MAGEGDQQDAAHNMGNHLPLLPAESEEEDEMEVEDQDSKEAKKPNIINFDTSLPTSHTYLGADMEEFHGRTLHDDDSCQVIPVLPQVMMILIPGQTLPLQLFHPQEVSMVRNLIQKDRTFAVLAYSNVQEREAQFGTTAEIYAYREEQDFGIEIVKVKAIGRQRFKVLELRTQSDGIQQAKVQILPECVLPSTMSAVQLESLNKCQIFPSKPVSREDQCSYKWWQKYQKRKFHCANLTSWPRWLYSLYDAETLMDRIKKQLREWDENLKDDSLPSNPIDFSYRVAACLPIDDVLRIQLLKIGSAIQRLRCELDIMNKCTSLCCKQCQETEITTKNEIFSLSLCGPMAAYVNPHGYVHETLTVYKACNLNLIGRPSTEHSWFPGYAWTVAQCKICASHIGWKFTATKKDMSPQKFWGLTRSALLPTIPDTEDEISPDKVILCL
T6 sequence (Q16531 whole entry partner): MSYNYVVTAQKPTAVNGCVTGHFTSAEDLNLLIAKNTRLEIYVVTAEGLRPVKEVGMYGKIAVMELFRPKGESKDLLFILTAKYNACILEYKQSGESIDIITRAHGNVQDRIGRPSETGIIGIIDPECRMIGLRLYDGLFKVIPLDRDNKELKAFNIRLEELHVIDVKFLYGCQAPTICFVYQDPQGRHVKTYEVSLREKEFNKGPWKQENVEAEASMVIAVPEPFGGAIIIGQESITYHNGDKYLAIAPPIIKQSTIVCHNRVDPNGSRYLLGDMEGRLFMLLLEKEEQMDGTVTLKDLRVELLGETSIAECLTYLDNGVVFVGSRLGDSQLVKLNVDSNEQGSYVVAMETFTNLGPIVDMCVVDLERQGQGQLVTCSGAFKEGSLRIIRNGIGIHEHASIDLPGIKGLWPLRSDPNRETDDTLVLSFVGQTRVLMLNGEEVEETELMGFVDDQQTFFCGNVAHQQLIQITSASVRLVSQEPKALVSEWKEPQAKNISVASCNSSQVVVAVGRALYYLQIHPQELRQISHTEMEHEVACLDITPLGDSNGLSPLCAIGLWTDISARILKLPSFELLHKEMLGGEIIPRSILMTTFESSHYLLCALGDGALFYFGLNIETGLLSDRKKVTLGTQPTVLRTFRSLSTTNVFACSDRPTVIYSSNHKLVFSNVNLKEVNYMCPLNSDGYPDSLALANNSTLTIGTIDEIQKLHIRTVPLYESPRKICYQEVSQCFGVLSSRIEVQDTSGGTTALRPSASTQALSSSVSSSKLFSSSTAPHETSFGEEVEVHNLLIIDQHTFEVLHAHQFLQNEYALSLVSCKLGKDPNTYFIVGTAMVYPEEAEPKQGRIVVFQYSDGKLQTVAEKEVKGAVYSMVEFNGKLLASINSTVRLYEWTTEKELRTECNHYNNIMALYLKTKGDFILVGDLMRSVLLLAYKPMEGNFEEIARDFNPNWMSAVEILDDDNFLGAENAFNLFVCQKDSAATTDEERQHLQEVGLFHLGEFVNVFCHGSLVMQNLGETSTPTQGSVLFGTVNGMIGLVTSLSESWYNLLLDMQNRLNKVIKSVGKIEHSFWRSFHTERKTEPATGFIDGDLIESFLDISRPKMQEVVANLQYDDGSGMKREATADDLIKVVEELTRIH

T2 sequence (Q13422 whole entry): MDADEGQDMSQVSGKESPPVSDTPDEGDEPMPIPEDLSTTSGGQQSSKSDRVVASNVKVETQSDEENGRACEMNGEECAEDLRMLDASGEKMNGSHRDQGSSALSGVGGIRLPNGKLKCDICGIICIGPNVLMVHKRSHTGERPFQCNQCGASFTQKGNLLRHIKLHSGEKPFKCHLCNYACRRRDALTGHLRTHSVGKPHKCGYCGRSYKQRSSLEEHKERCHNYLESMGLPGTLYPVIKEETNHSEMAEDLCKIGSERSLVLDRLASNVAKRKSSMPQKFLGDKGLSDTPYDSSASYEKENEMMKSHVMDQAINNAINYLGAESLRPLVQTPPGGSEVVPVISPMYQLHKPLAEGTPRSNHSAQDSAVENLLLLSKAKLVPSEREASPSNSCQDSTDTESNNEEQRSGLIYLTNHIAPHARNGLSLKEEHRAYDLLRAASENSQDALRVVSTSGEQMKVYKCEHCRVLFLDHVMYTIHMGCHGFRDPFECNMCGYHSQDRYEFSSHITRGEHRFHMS
T2 sequence (Q96SW2 whole entry): as the sequence (Q96SW2 whole entry) above
T2 sequence (Q16531 whole entry partner): as the sequence (Q16531 whole entry partner) above
T5 sequence (P30291 whole entry): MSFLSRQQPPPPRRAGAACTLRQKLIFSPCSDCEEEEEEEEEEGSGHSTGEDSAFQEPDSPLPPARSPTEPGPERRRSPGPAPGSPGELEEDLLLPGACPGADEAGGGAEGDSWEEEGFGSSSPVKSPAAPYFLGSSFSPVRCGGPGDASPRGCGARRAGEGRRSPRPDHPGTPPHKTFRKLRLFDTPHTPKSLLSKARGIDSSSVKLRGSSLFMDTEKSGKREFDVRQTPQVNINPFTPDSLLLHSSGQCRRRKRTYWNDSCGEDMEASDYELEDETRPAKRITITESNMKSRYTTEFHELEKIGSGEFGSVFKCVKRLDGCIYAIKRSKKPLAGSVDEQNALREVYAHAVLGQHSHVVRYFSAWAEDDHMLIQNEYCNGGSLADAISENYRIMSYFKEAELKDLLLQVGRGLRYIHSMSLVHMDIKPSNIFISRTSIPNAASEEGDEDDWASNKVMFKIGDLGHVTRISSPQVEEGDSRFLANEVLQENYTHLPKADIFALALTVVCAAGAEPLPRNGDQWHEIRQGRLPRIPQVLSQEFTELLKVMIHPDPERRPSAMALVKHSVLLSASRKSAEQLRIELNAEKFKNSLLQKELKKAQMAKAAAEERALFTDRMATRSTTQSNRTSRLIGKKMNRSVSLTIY
T5 sequence (Q96SW2 whole entry): as the sequence (Q96SW2 whole entry) above
T5 sequence (Q16531 whole entry partner): as the sequence (Q16531 whole entry partner) above
T3 sequence (Q9UKT9 whole entry): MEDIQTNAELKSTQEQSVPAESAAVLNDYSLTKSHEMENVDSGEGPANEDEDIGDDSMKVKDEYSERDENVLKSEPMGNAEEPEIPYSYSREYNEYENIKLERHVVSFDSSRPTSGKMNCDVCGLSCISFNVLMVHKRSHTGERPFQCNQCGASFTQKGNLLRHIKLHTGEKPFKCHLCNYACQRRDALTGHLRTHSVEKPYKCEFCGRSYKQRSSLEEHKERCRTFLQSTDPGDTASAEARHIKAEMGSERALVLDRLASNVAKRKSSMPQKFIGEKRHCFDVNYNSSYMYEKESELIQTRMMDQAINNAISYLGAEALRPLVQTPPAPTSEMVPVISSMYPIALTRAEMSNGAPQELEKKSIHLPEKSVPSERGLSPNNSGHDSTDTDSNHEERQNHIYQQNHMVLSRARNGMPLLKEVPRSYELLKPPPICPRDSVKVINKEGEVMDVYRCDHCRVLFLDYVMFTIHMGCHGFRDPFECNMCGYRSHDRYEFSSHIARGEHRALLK
T3 sequence (Q96SW2 whole entry): as the sequence (Q96SW2 whole entry) above
T3 sequence (Q16531 whole entry partner): as the sequence (Q16531 whole entry partner) above
T4 sequence (P48729 whole entry): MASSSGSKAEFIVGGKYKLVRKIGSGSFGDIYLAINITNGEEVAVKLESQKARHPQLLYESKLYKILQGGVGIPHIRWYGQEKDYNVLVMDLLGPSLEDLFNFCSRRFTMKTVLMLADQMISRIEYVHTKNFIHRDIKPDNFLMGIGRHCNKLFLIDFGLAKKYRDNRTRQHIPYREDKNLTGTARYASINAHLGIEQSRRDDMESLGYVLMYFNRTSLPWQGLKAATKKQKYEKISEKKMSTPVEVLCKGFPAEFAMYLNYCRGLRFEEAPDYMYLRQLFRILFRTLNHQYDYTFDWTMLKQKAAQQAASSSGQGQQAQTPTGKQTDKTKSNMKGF
T4 sequence (Q96SW2 whole entry): as the sequence (Q96SW2 whole entry) above
T4 sequence (Q16531 whole entry partner): as the sequence (Q16531 whole entry partner) above

Structure (SMILES)	substrate protein remaining % GSPT1 (GSPT1)	substrate protein remaining % IKZF1 (IKZF1)	inhibition at 0.01 µM (MDA-MB-231) [%]	inhibition at 0.5 µM (MDA-MB-231) [%]	substrate protein remaining % IKZF3 (IKZF3)	inhibition at 0.01 µM (H2228) [%]	inhibition at 0.5 µM (H2228) [%]	inhibition at 0.01 µM (H292) [%]	inhibition at 0.5 µM (H292) [%]	substrate protein remaining % CK1α (CK1α)	substrate protein remaining % WEE1 (WEE1)	substrate protein remaining % IKZF2 (IKZF2)
Cc1nc(C2CCN(Cc3ccc4c(c3)CN(N3CCC(=O)NC3=O)C4=O)CC2)c2c3c(sc2n1)CCCC3 [GT-08089, 1-(5-((4-(2-methyl-5,6,7,8-tetrahydrobenzo[4,5]thieno[2,3-d]pyrimidin-4-yl)piperidin-1-yl)methyl)-1-oxoisoindolin-2-yl)dihydropyrimidine-2,4(1H,3H)-dione]	A (0% ≤ substrate protein remaining % ≤ 80%)	B (80%< substrate protein remaining %≤ 100%)	18 to 25	25 to 40	B (80%< substrate protein remaining %≤ 100%)	20 to 25	20 to 25	20 to 40	20 to 40	A (0% ≤ substrate protein remaining % ≤ 80%)	A (0% ≤ substrate protein remaining % ≤ 80%)	B (80%< substrate protein remaining %≤ 100%)
O=C1CCN(N2Cc3cc(CN4CCC(c5ncnc6sc7c(c56)CCCC7)CC4)ccc3C2=O)C(=O)N1 [GT-08112, 1-(1-oxo-5-((4-(5,6,7,8-tetrahydrobenzo[4,5]thieno[2,3-d]pyrimidin-4-yl)piperidin-1-yl)methyl)isoindolin-2-yl)dihydropyrimidine-2,4(1H,3H)-dione]	A (0% ≤ substrate protein remaining % ≤ 80%)	B (80%< substrate protein remaining %≤ 100%)	15 to 18	25 to 40	B (80%< substrate protein remaining %≤ 100%)	15 to 20	25 to 30	15 to 20	20 to 40	B (80%< substrate protein remaining %≤ 100%)	B (80%< substrate protein remaining %≤ 100%)	B (80%< substrate protein remaining %≤ 100%)
Cc1cc2c(C3CCN(Cc4ccc5c(c4)CN(N4CCC(=O)NC4=O)C5=O)CC3)ncnc2s1 [GT-08083, 1-(5-((4-(6-methylthieno[2,3-d]pyrimidin-4-yl)piperidin-1-yl)methyl)-1-oxoisoindolin-2-yl)dihydropyrimidine-2,4(1H,3H)-dione]	A (0% ≤ substrate protein remaining % ≤ 80%)	B (80%< substrate protein remaining %≤ 100%)	25 to 40	25 to 40	B (80%< substrate protein remaining %≤ 100%)	25 to 30	30 to 40	20 to 40	20 to 40	A (0% ≤ substrate protein remaining % ≤ 80%)	B (80%< substrate protein remaining %≤ 100%)	B (80%< substrate protein remaining %≤ 100%)
O=C1CCN(N2C(=O)c3ccc(CN4CCN(c5ncnc6sc(-c7ccccc7)cc56)CC4)cc3C2=O)C(=O)N1 [GT-08097, 2-(2,4-dioxotetrahydropyrimidin-1(2H)-yl)-5-((4-(6-phenylthieno[2,3-d]pyrimidin-4-yl)piperazin-1-yl)methyl)isoindoline-1,3-dione]	A (0% ≤ substrate protein remaining % ≤ 80%)	B (80%< substrate protein remaining %≤ 100%)	10 to 15	18 to 25	B (80%< substrate protein remaining %≤ 100%)	15 to 20	30 to 40	5 to 10	10 to 15	A (0% ≤ substrate protein remaining % ≤ 80%)	A (0% ≤ substrate protein remaining % ≤ 80%)	B (80%< substrate protein remaining %≤ 100%)
O=C1CCN(N2Cc3cc(CNC45CC6CC(CC(O)(C6)C4)C5)ccc3C2=O)C(=O)N1 [GT-07784, 1-(5-((((1r,3s,5R,7S)-3-hydroxyadamantan-1-yl)amino)methyl)-1-oxoisoindolin-2-yl)dihydropyrimidine-2,4(1H,3H)-dione]	B (80%< substrate protein remaining %≤ 100%)	B (80%< substrate protein remaining %≤ 100%)	18 to 25	25 to 40	B (80%< substrate protein remaining %≤ 100%)	25 to 30	30 to 40	20 to 40	20 to 40	B (80%< substrate protein remaining %≤ 100%)	B (80%< substrate protein remaining %≤ 100%)	A (0% ≤ substrate protein remaining % ≤ 80%)
Cc1nc(C2CCN(Cc3ccc4c(c3)C(=O)N(N3CCC(=O)NC3=O)C4=O)CC2)c2c3c(sc2n1)CCCC3 [GT-08111, 2-(2,4-dioxotetrahydropyrimidin-1(2H)-yl)-5-((4-(2-methyl-5,6,7,8-tetrahydrobenzo[4,5]thieno[2,3-d]pyrimidin-4-yl)piperidin-1-yl)methyl)isoindoline-1,3-dione]	A (0% ≤ substrate protein remaining % ≤ 80%)	B (80%< substrate protein remaining %≤ 100%)	25 to 40	25 to 40	B (80%< substrate protein remaining %≤ 100%)	20 to 25	25 to 30	20 to 40	20 to 40	A (0% ≤ substrate protein remaining % ≤ 80%)	B (80%< substrate protein remaining %≤ 100%)	B (80%< substrate protein remaining %≤ 100%)
Cc1sc2ncnc(N3CCN(Cc4ccc5c(c4)C(=O)N(N4CCC(=O)NC4=O)C5=O)CC3)c2c1C [GT-08094, 5-((4-(5,6-dimethylthieno[2,3-d]pyrimidin-4-yl)piperazin-1-yl)methyl)-2-(2,4-dioxotetrahydropyrimidin-1(2H)-yl)isoindoline-1,3-dione]	A (0% ≤ substrate protein remaining % ≤ 80%)	B (80%< substrate protein remaining %≤ 100%)	25 to 40	25 to 40	B (80%< substrate protein remaining %≤ 100%)	30 to 40	25 to 30	20 to 40	20 to 40	A (0% ≤ substrate protein remaining % ≤ 80%)	A (0% ≤ substrate protein remaining % ≤ 80%)	B (80%< substrate protein remaining %≤ 100%)
O=C1CCN(N2Cc3cc(CN4CCC(c5ncnc6scc(-c7ccccc7)c56)CC4)ccc3C2=O)C(=O)N1 [GT-08086, 1-(1-oxo-5-((4-(5-phenylthieno[2,3-d]pyrimidin-4-yl)piperidin-1-yl)methyl)isoindolin-2-yl)dihydropyrimidine-2,4(1H,3H)-dione]			25 to 40	25 to 40		20 to 25	20 to 25	20 to 40	20 to 40			
Cc1sc2ncnc(N3CCN(Cc4ccc5c(c4)CN(N4CCC(=O)NC4=O)C5=O)CC3)c2c1C [GT-08061, 1-(5-((4-(5,6-dimethylthieno[2,3-d]pyrimidin-4-yl)piperazin-1-yl)methyl)-1-oxoisoindolin-2-yl)dihydropyrimidine-2,4(1H,3H)-dione]	B (80%< substrate protein remaining %≤ 100%)	B (80%< substrate protein remaining %≤ 100%)	10 to 15	18 to 25	A (0% ≤ substrate protein remaining % ≤ 80%)	10 to 15	25 to 30			B (80%< substrate protein remaining %≤ 100%)	B (80%< substrate protein remaining %≤ 100%)	A (0% ≤ substrate protein remaining % ≤ 80%)
